In brackets after ≈: the same amount, converted by molar mass.
Key:
Format in all cases: in vivo, Pepper mild mottle virus (PMMoV)
[1] = tested on: PMMoV; assay: Antiviral activity assay against PMMoV, inactivating activity; conditions: against PMMoV, average of three replicates, ± standard deviation; for pest or weed control at 500 µg/mL / EC50: Pepper mild mottle virus; for pest or weed control at 500 µg/mL: read-out: Inactivating activity; for EC50: read-out: EC50 of inactivating activity; for pest or weed control at 500 µg/mL / Inactivating activity: at 500 µg/mL
Experimental: (§1) Virions were isolated and extracted from leaves of N. benthamiana infected with PMMoV referring to the method recorded in the literature. And the inhibiting activities of C1–C38 against PMMoV were assessed with reference to the literature as well [26, 34].

[2] = tested on: PMMoV; assay: Antiviral activity assay against PMMoV, protective activity; set-up: Protective activity: concentration or dose not given beside the values; conditions: against PMMoV, average of three replicates, ± standard deviation; for EC50: Pepper mild mottle virus, read-out: EC50 of protective activity
Experimental: as §1

[3] = tested on: PMMoV; assay: Antiviral activity assay against PMMoV, curative activity; set-up: Curative activity: concentration or dose not given beside the values; conditions: against PMMoV, average of three replicates, ± standard deviation; for EC50: Pepper mild mottle virus, read-out: EC50 of curative activity
Experimental: as §1

Row | EC50 [1] [µg/mL] | EC50 [2] [µg/mL] | EC50 [3] [µg/mL] | Compound | pest or weed control at 500 µg/mL [1] [%] | Protective activity [2] [%] | Curative activity [3] [%] | Inactivating activity [1] [%]
1 | 593 ± 13.7 (≈ 833 µM) | 103 ± 6.4 (≈ 145 µM) | 61 ± 5.4 (≈ 85.7 µM) | CC(=O)OCC1OC(n2cnc3c(N4CCOCC4)ncnc32)C(NS(=O)(=O)c2ccc(Br)cc2)C(OC(C)=O)C1OC(C)=O (centres unmarked) [C15] | 47.7 ± 0.69 | 62.5 ± 3.3 | 65.6 ± 3.4 | 
2 | 171 ± 9.6 (≈ 241 µM) | 664 ± 12.4 (≈ 933 µM) | 48.5 ± 3.1 (≈ 68.2 µM) | CC(=O)OCC1OC(n2cnc3c(N4CCOCC4)ncnc32)C(NS(=O)(=O)c2cccc(Br)c2)C(OC(C)=O)C1OC(C)=O (centres unmarked) [C16] | 55.9 ± 1.5 | 45.3 ± 2.5 | 58.9 ± 4.2 | 
3 | 84 ± 2.8 (≈ 118 µM) | 140 ± 9.5 (≈ 197 µM) | 16.1 ± 2.7 (≈ 22.6 µM) | CC(=O)OCC1OC(n2cnc3c(N4CCOCC4)ncnc32)C(NS(=O)(=O)c2ccccc2Br)C(OC(C)=O)C1OC(C)=O (centres unmarked) [C17] | 59.9 ± 4 | 61.0 ± 5.3 | 70.5 ± 3.8 | 
4 | 134 ± 8.5 (≈ 212 µM) | 994 ± 11.2 (≈ 1570 µM) | 24.7 ± 1.3 (≈ 39 µM) | CC(=O)OCC1OC(n2cnc3c(N4CCOCC4)ncnc32)C(NS(=O)(=O)c2ccccc2)C(OC(C)=O)C1OC(C)=O (centres unmarked) [C18] | 61.3 ± 2.8 | 41.9 ± 2.9 | 63.5 ± 2.5 | 
5 | 25.5 ± 4 (≈ 39.2 µM) | 159 ± 11.8 (≈ 245 µM) | 36.7 ± 3.7 (≈ 56.4 µM) | CC(=O)OCC1OC(n2cnc3c(N4CCOCC4)nc(F)nc32)C(NS(=O)(=O)c2ccccc2)C(OC(C)=O)C1OC(C)=O (centres unmarked) [C19] | 69.7 ± 1.9 | 59.8 ± 3.6 | 69.5 ± 4.7 | 
6 | 28.5 ± 4.2 (≈ 42.7 µM) | 292 ± 17.6 (≈ 438 µM) | 30.1 ± 3.5 (≈ 45.1 µM) | CC(=O)OCC1OC(n2cnc3c(N4CCOCC4)nc(Cl)nc32)C(NS(=O)(=O)c2ccccc2)C(OC(C)=O)C1OC(C)=O (centres unmarked) [C20] | 72 ± 4.2 | 54.8 ± 2.8 | 74.8 ± 4.8 | 
7 | 83.2 ± 3.7 (≈ 123 µM) | 74 ± 5.1 (≈ 110 µM) | 61.6 ± 5.3 (≈ 91.3 µM) | CC(=O)OCC1OC(n2cnc3c(N4CCOCC4)ncnc32)C(NS(=O)(=O)c2c(C)cc(C)cc2C)C(OC(C)=O)C1OC(C)=O (centres unmarked) [C21] | 68.7 ± 4.5 | 60.7 ± 2.5 | 66.9 ± 1.8 | 
8 | 13.7 ± 1.6 (≈ 19.9 µM) | 38 ± 3.5 (≈ 55.1 µM) | 26.2 ± 1.3 (≈ 38 µM) | CC(=O)OCC1OC(n2cnc3c(N4CCOCC4)nc(N)nc32)C(NS(=O)(=O)c2c(C)cc(C)cc2C)C(OC(C)=O)C1OC(C)=O (centres unmarked) [C22] | 61.3 | 61.2 ± 1.6 | 67.6 ± 1.9 | 61.3 ± 4.5
9 | 240 ± 17.8 (≈ 338 µM) | 145 ± 7.7 (≈ 204 µM) | 11.3 ± 3.3 (≈ 15.9 µM) | CC(=O)OCC1OC(n2cnc3c(N4CCOCC4)nc(Cl)nc32)C(NS(=O)(=O)c2c(C)cc(C)cc2C)C(OC(C)=O)C1OC(C)=O (centres unmarked) [C23] | 55.4 ± 2.6 | 57.4 ± 1.6 | 69.0 ± 3.5 | 
10 | 632 ± 15.2 (≈ 902 µM) | 788 ± 12.8 (≈ 1120 µM) | 45.1 ± 4.7 (≈ 64.4 µM) | CC(=O)OCC1OC(n2cnc3c(N4CCOCC4)ncnc32)C(NS(=O)(=O)c2ccc(C(F)(F)F)cc2)C(OC(C)=O)C1OC(C)=O (centres unmarked) [C26] | 45.5 ± 2.6 | 44.5 ± 1.6 | 67.6 ± 2.5 | 
11 | 184 ± 10 (≈ 251 µM) | 534 ± 14.9 (≈ 726 µM) | 51.1 ± 3.6 (≈ 69.5 µM) | CC(=O)OCC1OC(n2cnc3c(N4CCOCC4)nc(Cl)nc32)C(NS(=O)(=O)c2ccc(C(F)(F)F)cc2)C(OC(C)=O)C1OC(C)=O (centres unmarked) [C27] | 62.4 ± 4.7 | 45.0 ± 3.4 | 69.9 ± 3.6 | 
12 | 576 ± 14.9 (≈ 801 µM) | 633 ± 13.6 (≈ 881 µM) | 45.4 ± 3 (≈ 63.2 µM) | CC(=O)OCC1OC(n2cnc3c(N4CCOCC4)nc(F)nc32)C(NS(=O)(=O)c2ccc(C(F)(F)F)cc2)C(OC(C)=O)C1OC(C)=O (centres unmarked) [C28] | 44 ± 4.3 | 42.9 ± 0.7 | 69.4 ± 4.9 | 
13 | 353 ± 18.7 (≈ 504 µM) | 88.4 ± 6.3 (≈ 126 µM) | 64.8 ± 3.1 (≈ 92.5 µM) | CC(=O)OCC1OC(n2cnc3c(N4CCOCC4)ncnc32)C(NS(=O)(=O)c2cccc(C(F)(F)F)c2)C(OC(C)=O)C1OC(C)=O (centres unmarked) [C29] | 53.4 ± 0.8 | 64.9 ± 4.7 | 69.8 ± 4.3 | 
14 | 20.4 ± 4.9 (≈ 31.4 µM) | 262 ± 10.3 (≈ 402 µM) | 60.2 ± 3.1 (≈ 92.5 µM) | CC(=O)OCC1OC(n2cnc3c(N4CCOCC4)ncnc32)C(NS(=O)(=O)c2ccc(F)cc2)C(OC(C)=O)C1OC(C)=O (centres unmarked) [C30] | 61.7 ± 4.6 | 58.9 ± 3.8 | 67.9 ± 3.3 | 
15 | 50 ± 2 (≈ 74.8 µM) | 99.6 ± 3.8 (≈ 149 µM) | 29.6 ± 1.1 (≈ 44.3 µM) | CC(=O)OCC1OC(n2cnc3c(N4CCOCC4)nc(F)nc32)C(NS(=O)(=O)c2ccc(F)cc2)C(OC(C)=O)C1OC(C)=O (centres unmarked) [C31] | 68.5 ± 1.7 | 56.0 ± 1.9 | 61.9 ± 3.3 | 
16 | 38 ± 4.4 (≈ 55.5 µM) | 28.7 ± 4.4 (≈ 41.9 µM) | 23.8 ± 5.5 (≈ 34.7 µM) | CC(=O)OCC1OC(n2cnc3c(N4CCOCC4)nc(Cl)nc32)C(NS(=O)(=O)c2ccc(F)cc2)C(OC(C)=O)C1OC(C)=O (centres unmarked) [C32] | 67.9 ± 5.1 | 68.9 ± 2.0 | 68.0 ± 2.7 | 

Second part, the compound before the results:

Row | Compound | EC50 [1] [µg/mL] | EC50 [2] [µg/mL] | EC50 [3] [µg/mL] | pest or weed control at 500 µg/mL [1] [%] | Protective activity [2] [%] | Curative activity [3] [%] | Inactivating activity [1] [%]
17 | CC(=O)OCC1OC(n2cnc3c(N4CCOCC4)nc(F)nc32)C(NS(=O)(=O)c2ccc([N+](=O)[O-])cc2)C(OC(C)=O)C1OC(C)=O (centres unmarked) [C3] | 198 ± 16.1 (≈ 285 µM) | 388 ± 16.6 (≈ 557 µM) | 11.5 ± 4.4 (≈ 16.5 µM) | 68.9 ± 4.9 | 57.5 ± 4.3 | 67.0 ± 3.6 | 
18 | CC(=O)OCC1OC(n2cnc3c(N4CCOCC4)nc(Cl)nc32)C(NS(=O)(=O)c2ccc([N+](=O)[O-])cc2)C(OC(C)=O)C1OC(C)=O (centres unmarked) [C4] | 141 ± 12.1 (≈ 198 µM) | 475 ± 15.8 (≈ 667 µM) | 219 ± 9 (≈ 308 µM) | 64.1 ± 3.5 | 52.6 ± 2.0 | 61.2 ± 3.7 | 
19 | CC(=O)OCC1OC(n2cnc3c(N4CCOCC4)ncnc32)C(NS(=O)(=O)c2cccc([N+](=O)[O-])c2)C(OC(C)=O)C1OC(C)=O (centres unmarked) [C5] | 622 ± 14.7 (≈ 918 µM) | 2280 ± 24.8 (≈ 3370 µM) | 63.8 ± 5.3 (≈ 94.1 µM) | 47.5 ± 1.4 | 43.3 ± 2.3 | 60.3 ± 2.5 | 
20 | CC(=O)OCC1OC(n2cnc3c(N4CCOCC4)ncnc32)C(NS(=O)(=O)c2ccccc2[N+](=O)[O-])C(OC(C)=O)C1OC(C)=O (centres unmarked) [C6] | 182 ± 7.8 (≈ 268 µM) | 358 ± 12.3 (≈ 528 µM) | 132 ± 9.4 (≈ 194 µM) | 60.8 ± 1.9 | 52.0 ± 2.3 | 67.0 ± 4.9 | 
21 | CC(=O)OCC1OC(n2cnc3c(N4CCOCC4)ncnc32)C(NS(=O)(=O)c2ccc(C#N)cc2)C(OC(C)=O)C1OC(C)=O (centres unmarked) [C7] | 2415 ± 17.2 (≈ 3670 µM) | 793 ± 17.1 (≈ 1210 µM) | 281 ± 10.3 (≈ 427 µM) | 36.6 ± 3.2 | 44.7 ± 1.4 | 55.8 ± 1.3 | 
22 | CC(=O)OCC1OC(n2cnc3c(N4CCOCC4)nc(Cl)nc32)C(NS(=O)(=O)c2ccc(C#N)cc2)C(OC(C)=O)C1OC(C)=O (centres unmarked) [C8] | 222 ± 4.8 (≈ 321 µM) | 1040 ± 19.4 (≈ 1510 µM) | 64.6 ± 4.6 (≈ 93.3 µM) | 56.6 ± 4 | 44.3 ± 1.8 | 69.6 ± 1.3 | 
23 | CC(=O)OCC1OC(n2cnc3c(N4CCOCC4)ncnc32)C(NS(=O)(=O)c2ccc(Cl)cc2)C(OC(C)=O)C1OC(C)=O (centres unmarked) [C9] | 103 ± 9.1 (≈ 155 µM) | 267 ± 8.6 (≈ 401 µM) | 33.3 ± 1.2 (≈ 49.9 µM) | 65.8 ± 3.9 | 58.9 ± 4.0 | 70.9 ± 4.9 | 
24 | CC(=O)OCC1OC(n2cnc3c(N4CCOCC4)ncnc32)C(NS(=O)(=O)c2cccc(Cl)c2)C(OC(C)=O)C1OC(C)=O (centres unmarked) [C10] | 16.3 ± 1.9 (≈ 24.4 µM) | 17.8 ± 2.1 (≈ 26.7 µM) | 22.2 ± 3.4 (≈ 33.3 µM) | 60.5 | 67.0 ± 4.3 | 62.1 ± 5.8 | 60.5 ± 1.8
25 | CC(=O)OCC1OC(n2cnc3c(N4CCOCC4)nc(N)nc32)C(NS(=O)(=O)c2cccc(Cl)c2)C(OC(C)=O)C1OC(C)=O (centres unmarked) [C11] | 497.1 ± 3 (≈ 729 µM) | 225 ± 11.9 (≈ 329 µM) | 372 ± 18.4 (≈ 545 µM) | 51.8 ± 2.1 | 58.8 ± 3.1 | 51.8 ± 1.0 | 
26 | COc1ccc(S(=O)(=O)NC2C(OC(C)=O)C(OC(C)=O)C(COC(C)=O)OC2n2cnc3c(N4CCOCC4)ncnc32)cc1 (centres unmarked) [C12] | 43.1 ± 1.1 (≈ 65 µM) | 134 ± 7.4 (≈ 203 µM) | 53 ± 2.1 (≈ 80 µM) | 71.5 ± 5 | 65.6 ± 4.7 | 63.5 ± 2.6 | 
27 | COc1ccc(S(=O)(=O)NC2C(OC(C)=O)C(OC(C)=O)C(COC(C)=O)OC2n2cnc3c(N4CCOCC4)nc(F)nc32)cc1 (centres unmarked) [C13] | 458.1 ± 3.3 (≈ 673 µM) | 596 ± 10.9 (≈ 876 µM) | 20.9 ± 3 (≈ 30.7 µM) | 47.3 ± 2.7 | 46.5 ± 3.4 | 72.5 ± 2.6 | 
28 | COc1ccc(S(=O)(=O)NC2C(OC(C)=O)C(OC(C)=O)C(COC(C)=O)OC2n2cnc3c(N4CCOCC4)nc(N)nc32)cc1 (centres unmarked) [C14] | 4507 ± 24.2 (≈ 6650 µM) | 926 ± 11.4 (≈ 1370 µM) | 100 ± 8.9 (≈ 148 µM) | 38.5 ± 2 | 38.3 ± 4.4 | 53.6 ± 2.4 | 
